Measurements from patent US20240041042A1, “1-(PYRIDYL)-5-AZINYLPYRAZOLE DERIVATIVES, AND THEIR USE FOR CONTROL OF UNDESIRED PLANT GROWTH” (Bayer Aktiengesellschaft, priority 2020, published 2024).
Like-named read-outs stand apart in the source and are kept apart here.

Legend:
Type in all cases: in vivo
[1] = system: Alopecurus myosuroides (ALOMY); assay: Pre-emergence herbicidal action against ALOMY; details: scored visually after about 3 weeks, 100% = plants have died
In short: (§1)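 Dosages of 320 g/ha or less; pre-emergence; WP or EC in aqueous spray, 0.5% additive, 600 l/ha; greenhouse; visual % effect after ~3 wk relative to control pots.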

[2] = system: Amaranthus retroflexus (AMARE); assay: Pre-emergence herbicidal action against AMARE; details: 320 g/ha, visual scoring after about 3 weeks vs untreated controls
In short: as §1

[3] = system: Digitaria sanguinalis (DIGSA); assay: Pre-emergence herbicidal action against DIGSA
In short: as §1

Lolium rigidum (LOLRI) = assay: Pre-emergence herbicidal action against LOLRI; details: dosage 320 g/ha
In short: as §1

Setaria viridis (SETVI) [4] = assay: Pre-emergence herbicidal action against SETVI; details: dosage 320 g/ha
In short: as §1

[5] = system: Verconica persica (VERPE); assay: Pre-emergence herbicidal action against VERPE
In short: as §1

Viola tricolor (VIOTR) [6] = assay: Pre-emergence herbicidal action against VIOTR
In short: as §1

Oryza sativa (ORYSA) [7] = details: pre-emergence, crop plant compatibility, in comparison to untreated controls
In short: (§2)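 Crop injury rated visually in percent against untreated plants roughly 3 weeks after treatment (0% no effect, 100% plants dead). Compounds, as WP or EC with 0.5% additive in 600 l/ha water, were applied to the covering soil right after sowing; greenhouse growth. Suffixes a, b, c denote different dosages.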

[8] = system: Abutilon theophrasti (ABUTH); assay: Post-emergence herbicidal action against ABUTH; details: visual rating about 3 weeks after treatment vs untreated controls (100% = plants have died, 0% = like control plants)
In short: (§3)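 Greenhouse plants sprayed at the one-leaf stage, 2–3 weeks after sowing, with WP or EC formulations plus 0.5% additive at 600 l/ha water. Activity rated visually after about 3 weeks versus untreated controls (100% = dead, 0% = like control), at 320 g/ha or lower.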

[9] = system: Alopecurus myosuroides (ALOMY); assay: Post-emergence herbicidal action against ALOMY; details: visual rating about 3 weeks after treatment vs untreated controls (100% = plants have died, 0% = like control plants)
In short: as §3

[10] = system: Amaranthus retroflexus (AMARE); assay: Post-emergence herbicidal action against AMARE
In short: as §3

[11] = system: Pharbitis purpurea (PHBPU); assay: Post-emergence herbicidal action against PHBPU
In short: as §3

[12] = system: Verconica persica (VERPE); assay: Post-emergence herbicidal action against VERPE
In short: as §3

Oryza sativa (ORYSA) [13] = details: crop plant compatibility
In short: (§4)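 Test crops were treated 2 to 3 weeks after sowing, once they reached one leaf, by spraying compound in water with 0.5% additive at 600 l/ha. Visual scoring compared them with untreated controls roughly 3 weeks on, and appendices a, b and c denote different doses.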

Avena fatua (AVEFA) [14] = assay: Pre-emergence herbicidal action against AVEFA; details: 320 g/ha, visual scoring after about 3 weeks vs untreated controls
In short: as §1

[15] = system: Echinochloa crus-galli (ECHCG); assay: Pre-emergence herbicidal action against ECHCG; details: dosage 320 g/ha
In short: as §1

[16] = system: Matricaria inodora (MATIN); assay: Pre-emergence herbicidal action against MATIN; details: dosage 320 g/ha
In short: as §1

[17] = system: Polygonum convolvulus (POLCO); assay: Pre-emergence herbicidal action against POLCO; details: dosage 320 g/ha
In short: as §1

Zea mays (ZEAMX) [18] = details: pre-emergence, 80 g/ha, crop plant compatibility, in comparison to untreated controls
In short: as §2

Avena fatua (AVEFA) [19] = assay: Post-emergence herbicidal action against AVEFA; details: 320 g/ha, visual rating about 3 weeks after treatment
In short: as §3

[20] = system: Echinochloa crus-galli (ECHCG); assay: Post-emergence herbicidal action against ECHCG
In short: as §3

Setaria viridis (SETVI) [21] = assay: Post-emergence herbicidal action against SETVI; details: dosage 320 g/ha
In short: as §3

Viola tricolor (VIOTR) [22] = assay: Post-emergence herbicidal action against VIOTR
In short: as §3

[23] = system: Triticum aestivum (TRZAS); details: crop plant compatibility, 80 g/ha, effect vs untreated controls
In short: as §4

Zea mays (ZEAMX) [24] = details: crop plant compatibility, effect vs untreated controls
In short: as §4

[25] = system: Polygonum convolvulus (POLCO); assay: Post-emergence herbicidal action against POLCO; details: dosage 320 g/ha
In short: as §3

[26] = 80 g/ha, effect in comparison to untreated controls

| SMILES | Pre-emergence action against ALOMY ([1]; 320 g/ha) [%] | Pre-emergence action against AMARE in % [2] [%] | Pre-emergence action against SETVI in % (Setaria viridis (SETVI) [4]) [%] | Pre-emergence action against VERPE in % ([5]; dosage 320 g/ha) [%] | Pre-emergence action against VIOTR in % (Viola tricolor (VIOTR) [6]; 320 g/ha, Viola tricolor) [%] | Pre-emergence action against ORYSA in % (Oryza sativa (ORYSA) [7]; 80 g/ha) [%] | Pre-emergence action against ORYSA in % (Oryza sativa (ORYSA) [7]; 320 g/ha) [%] | Post-emergence action against PHBPU in % ([11]; dosage 80 g/ha) [%] | Post-emergence action against VERPE in % ([12]; dosage 80 g/ha) [%] | Post-emergence action against ORYSA in % (Oryza sativa (ORYSA) [13]; [26]) [%] | Pre-emergence action against AVEFA in % (Avena fatua (AVEFA) [14]) [%] | Pre-emergence action against ECHCG in % [15] [%] | Pre-emergence action against POLCO in % [17] [%] | Pre-emergence action against ZEAMX in % (Zea mays (ZEAMX) [18]) [%] | Post-emergence action against VIOTR in % (Viola tricolor (VIOTR) [22]; 320 g/ha) [%] | Post-emergence action against TRZAS in % [23] [%] | Post-emergence action against ZEAMX in % (Zea mays (ZEAMX) [24]; 80 g/ha) [%] | further results |
| --- | --- | --- | --- | --- | --- | --- | --- | --- | --- | --- | --- | --- | --- | --- | --- | --- | --- | --- |
| CCOC(=O)CN(C)S(=O)(=O)NC(=O)COc1nn(-c2ccccn2)c(-c2ccc(F)nc2)c1Br [Example I-120] | 80 | 90 | 100 | 90 | 80 | 0 | 10 | 80 | 90 | 20 |  |  |  |  |  |  |  | Pre-emergence action against DIGSA in % ([3]; 80 g/ha, visual scoring after about 3 weeks vs untreated controls): 100%; Pre-emergence action against DIGSA in % ([3]; dosage 320 g/ha): 100%; Pre-emergence action against LOLRI in % (Lolium rigidum (LOLRI)): 80%; Post-emergence action against ABUTH in % ([8]; 80 g/ha): 80%; Post-emergence action against ALOMY in % ([9]; 80 g/ha): 100%; Post-emergence action against AMARE in % ([10]; 80 g/ha, visual rating about 3 weeks after treatment vs untreated controls (100% = plants have died, 0% = like control plants)): 80%; Post-emergence action against ORYSA in % (Oryza sativa (ORYSA) [13]; 20 g/ha, effect vs untreated controls): 10% |
| CCOC(=O)COc1nn(-c2ncccc2C(F)(F)F)c(-c2cncc(F)c2)c1I [Example I-225] | 90 | 100 | 80 | 90 | 100 | 20 |  | 80 | 80 | 10 | 90 | 80 | 90 | 10 | 80 | 20 | 20 | Pre-emergence action against ALOMY ([1]; 80 g/ha): 80%; Pre-emergence action against MATIN in % [16]: 80%; Pre-emergence action against VERPE in % ([5]; dosage 80 g/ha): 80%; Pre-emergence action against VIOTR in % (Viola tricolor (VIOTR) [6]; dosage 80 g/ha): 90%; Post-emergence action against ABUTH in % ([8]; 320 g/ha): 80%; Post-emergence action against ALOMY in % ([9]; 320 g/ha): 90%; Post-emergence action against AVEFA in % (Avena fatua (AVEFA) [19]): 80%; Post-emergence action against ECHCG in % ([20]; dosage 80 g/ha): 80%; Post-emergence action against ECHCG in % ([20]; dosage 320 g/ha): 90%; Post-emergence action against PHBPU in % ([11]; dosage 320 g/ha): 80%; Post-emergence action against SETVI in % (Setaria viridis (SETVI) [21]): 80%; Post-emergence action against VERPE in % ([12]; 320 g/ha, VERPE): 90%; Post-emergence action against VIOTR in % (Viola tricolor (VIOTR) [22]; 80 g/ha): 80% |
| C=CCNC(=O)COc1nn(-c2ncccc2F)c(-c2ccc(F)nc2)c1Br [Example I-31] |  | 90 | 90 | 90 | 90 | 0 | 0 |  |  | 0 | 80 | 90 | 80 | 0 | 80 | 10 | 0 | Post-emergence action against AMARE in % ([10]; 320 g/ha, visual rating about 3 weeks after treatment): 80%; Post-emergence action against POLCO in % [25]: 80%; Post-emergence action against ORYSA in % (Oryza sativa (ORYSA) [13]; 320 g/ha, effect in comparison to untreated controls): 10%; Post-emergence action against ZEAMX in % (Zea mays (ZEAMX) [24]; 320 g/ha): 0% |
